The results in this text go back to patent US9663789B2, “PME-1 as a biomarker to predict and diagnose endometrial and breast cancer and gene silencing of PME-1 to inhibit epithelial to mesenchymal transition” (MEDICAL DIAGNOSTIC LABORATORIES, LLC, priority 2013, dated 2017).

This series has as its system DcR2. In words: Senescence assay: Western blot for DcR2 in RL95-2 cells. The class given is cell-based, human. The conditions noted are these: RL95-2 cell lysates. How it is done:
We next analyzed cell lysates taken from RL95-2 cells that expressed either empty vector (Control), overexpressed PME-1 (+PME-1) or expressed shRNA against PME-1 (−PME-1) for DcR2 protein.
15 μg of protein was used for western analysis. PME-1 antibody (Santa Cruz) and COXIV (Cell Signaling Technologies) were used for detection of proteins and the blots were developed using chemiluminescence (Pierce ECL Western Blotting Substrate—Thermo Scientific) on the GE ImageQuant LAS 4000. For analysis of Akt, ERK, and β-catenin signaling in tissue culture, western analyses were completed as follows. RL95-2 cells stably infected with lentivirus expressing constructs were selected with puromycin (Invivogen). The cells were incubated with either 50 μM Akt inhibitor (LY 294002, Cell Signaling Technologies) or 40 μM ERK inhibitor (V0126, Cell Signaling Technologies) for 1-2 hours at 37° C. 1.5× Laemelli buffer (0.5 M Tris pH6.8, […], 10% sodium dodecyl sulfate, 100 mM EDTA) was used to prepare cell lysates. 20 μg of protein was used for western analysis. Primary antibodies used were: P-Akt (Ser473), P-Akt (Thr308), pan-Akt, P-ERK (Thr202/204), total ERK (Cell Signaling Technologies), PME-1 (Santa Cruz), phospho-β-catenin (Ser45, Cell Signaling Technologies), phospho-β-catenin (Ser33/37/Thr41, Cell Signaling Technologies), β-catenin (Abcam), DcR2 (Abcam), and GAPDH (Abcam). […]
On the technique in general: Immunoblotting shows a protein as a band on a membrane.

As to “shRNA (SEQ ID NO: 2): lentiviral shRNA against PPME1, target sequence SEQ ID NO: 2 GCAGCGATTATTAGTAGAGTT, bp 289-309; hairpin SEQ ID NO: 8 (CCGGGCAGCGATTATTAGTAGAGTTCTCGAGAACTCTACTAATAATCGCTGCTTTTT; listed as Homo sapiens)”, the “senescent marker protein DcR2 (Western)” value is listed as “increase in the senescent marker protein, DcR2”.
